Test results from patent publication US20250041313A1, “COMBINATION THERAPY FOR TREATMENT OF CANCER” (CITY OF HOPE, priority 2023, published 2025).

Tests used:
[1] = cited from earlier work
SBC3 xenograft = assay: SBC3 mouse xenograft, Carbo/Leflu study; assay type: in vivo
Experimental: (§1) Athymic nude nu/nu mice were obtained from Charles River, Wilmington, MA, and were acclimated for a week before beginning the experiment. All animal experiments were carried out in accordance with a protocol approved by the Institutional Animal Care and Use Committee COH (IACUC #16004). For treatments, mice were divided into 4 groups with five mice per group and subcutaneously injected into one flank with 2×10^6 SBC3 or SBC5 cells suspensions in 100 μl of PBS. Treatment started on the 14th day when tumors became palpable. Two in vivo studies were done in this project. SBC3 and SBC 5 xenograft with i) vehicle control, ii) […] 50 mg/kg, iii) Leflu 7.5 mg/kg, and iv) […]/Leflu. SBC3 with i) vehicle control, ii) Lur 0.5 mg/kg, iii) Leflu 3.8 mg/kg, and iv) Lur/Leflu. Treatments were given to mice via i.p. twice a week for 6 weeks. Animals were examined daily for signs of tumor growth. Tumors were measured in two dimensions using calipers and body weights were recorded. Animals were photographed on days 1, 5, 10, 15, 20, 25, 30, 35, and 40 after treatment. Tumors were removed on day 40 and photographed. At the end of the study, the mice were euthanized by CO2 asphyxiation followed by cervical dislocation. The tumor weights were compared between groups using an unpaired Student's t-test. A portion of the tumor was fixed in 10% buffered formaldehyde solution and paraffin-embedded for immuno-staining. FFPE tumor sections were stained with pDRP Ser^616 antibody. Tumor sections were deparaffinized and rehydrated, followed by heat-mediated antigen retrieval (pH 6, Dako). After permeabilization and blocking, tumor sections were stained with pDRP1 Ser^616 antibody overnight, washed and incubated with Alexa 488 secondary antibody for one hour, mounted and observed on an LSM 880 with a 10×/0.45 NA objective (Carl Zeiss). Immunofluorescent confocal images were acquired for each treatment (magnification:100×). Mean immunofluorescence intensities were calculated with ZEN 2.3 Lite software.

SBC5 xenograft = assay: SBC5 mouse xenograft, Carbo/Leflu study; assay type: in vivo; settings: Carbo 50 mg/kg, Leflu 7.5 mg/kg, i.p. twice a week
Experimental: as §1, with “A portion of the tumor was fixed in 10% buffered formaldehyde solution and paraffin-embedded for immuno-staining. FFPE tumor sections were stained with pDRP Ser^616 antibody. Tumor sections were deparaffinized and rehydrated, followed by heat-mediated antigen retrieval (pH 6, Dako). After permeabilization and blocking, tumor sections were stained with pDRP1 Ser^616 antibody overnight, washed and incubated with Alexa 488 secondary antibody for one hour, mounted and observed on an LSM 880 with a 10×/0.45 NA objective (Carl Zeiss). Immunofluorescent confocal images were acquired for each treatment (magnification:100×).” left out

SBC3 spheroids = assay: Immunoblotting of spheroid lysates; assay type: cell-based, human
Experimental: SCLC total cell lysates were prepared using RIPA (radioimmunoprecipitation assay lysis buffer) lysis buffer. Protein concentration was determined using DC Protein Assay Kit Bio-Rad (Hercules, CA). Samples were then run on SDS-PAGE in 4-15% polyacrylamide gels and transferred onto Immobilon membranes (Millipore, MO), blocked, incubated with specific primary antibodies at 4° C. overnight, and subsequently developed with secondary antibodies. The following primary antibody were used: pan-Actin, Phospho-DRP1 (Ser^616), Phospho-DRP1 (Ser^637), Histone H2B (V^119), Phospho-Histone H2A.X (Ser^139), Phospho-P53 (Ser^15), P-53, Cleaved PARP (Asp^214) (D64E10), Phospho-Chk1 (Ser^345) (133D3) and p21 were from Cell Signaling Technology (City of Industry, CA), β-Actin (Sigma-Aldrich, St. Luis, MO), Phospho RNA Polymerase II (S2) antibody (Bethyl Lab, Montgomery, TX), RNA Polymerase II CTD4H8 (BioLegend, San Diego, CA), DHODH (E-8), DRP1 (C-5), GAPDH (0411), c-Myc (9E10), Tom20 (F-10), FisI (B-5), OPA1 (D-9), antibodies from Santa Cruz Biotechnology (Dallas, TX) and MFN2 (Abcam, Boston, MA) and Chk1, MDM2, Cyclin CDK4 and D1, and E2F1 (Proteintech, Rosemont, IL).
SBC3 and H446 cells were plated at a density of 10,000 cells per well in 96-well ULA round-bottomed plates (S-Bio, Hudson, NH) and incubated for 72 h at 37° C., 5% CO2, and 95% humidity. Spheroids were transferred to low cell attachment dishes, grown for two days, and treated with drug. After treatment, spheroid samples were run with Western blot assay. For spheroid mitochondria visualization, they were stained with 250 nM MitoTracker® Red CMXRos and Hoechst from ThermoFisher Scientific (Waltham, MA) for 2 h after drug treatment. Spheroids were washed, fixated with 4% PFA, transferred into 96-well flat glass-bottom black microplate (Cellvis, Mountain View, CA), and mounted in wells.

SMILES	safety profile ([1]; up to 40 mg/day, patients with Wegner's granulomatosis)	time to attain steady state concentrations ([1]; without a loading dose, estimated, FDA label)	pDRP1 Ser616 immunofluorescence in tumor sections (SBC3 xenograft; SBC3 xenograft FFPE tumors)	reduction in tumor size/weight (SBC3 xenograft; SBC3 xenograft, day 40, vs control)	average final tumor weight at end of study (day 40) (SBC3 xenograft; SBC3 xenograft, Carbo 50 mg/kg, Leflu 7.5 mg/kg, i.p. twice a week)	final tumor weight (day 40) (SBC5 xenograft)	p21 level (SBC3 spheroids)
Cc1oncc1C(=O)Nc1ccc(C(F)(F)F)cc1 [Leflunomide, leflunomide]	safety profile like the 20 mg/day dose	two	significant decrease	~36%	1.01 ± 0.14 g	1.49 ± 0.20 g	
COc1ccc2[nH]c3c(c2c1)CCN[C@]31CS[C@@H]2c3c(OC(C)=O)c(C)c4c(c3[C@H](COC1=O)N1[C@@H]2[C@H]2c3c(cc(C)c(OC)c3O)C[C@@H]([C@@H]1O)N2C)OCO4 [Lurbinectedin, lurbinectedin]							upregulated
